Results taken from paper PMC5218480 (PLoS ONE, 2017).

Tested on: MV-4-11 cells
Experiment: Gene expression microarray analysis (Affymetrix PrimeView) and GSEA
Assay type: cell-based, human
Design: RFU PODN (11730768_x_at) / Fold change /veh PODN (11730768_x_at) / RFU LINC00158 (11744669_a_at) / Fold change /veh LINC00158 (11744669_a_at) / RFU DUSP10 (11751237_a_at) / Fold change /veh DUSP10 (11751237_a_at) / RFU ID3 (11757404_x_at) / Fold change /veh ID3 (11757404_x_at) / RFU PLEKHG5 (11737974_s_at) / Fold change /veh PLEKHG5 (11737974_s_at) / RFU LRRC4B (11730491_at) / Fold change /veh LRRC4B (11730491_at) / RFU GIMAP4 (11747438_a_at) / Fold change /veh GIMAP4 (11747438_a_at) / RFU KRT8 (11758183_x_at) / Fold change /veh KRT8 (11758183_x_at) / RFU CNN1 (11734310_a_at) / Fold change /veh CNN1 (11734310_a_at) / RFU VPS37D (11726825_at) / Fold change /veh VPS37D (11726825_at) / RFU C10orf10 (11716522_x_at) / Fold change /veh C10orf10 (11716522_x_at) / RFU KIR2DL2 /// KIR2DL4 /// KIR2DL5A /// KIR2DL5B /// KIR2DS1 /// KIR2DS2 /// KIR2DS3 /// KIR2DS4 /// KIR3DL3 /// KIR3DL3 /// KIR3DS1 (11738374_at) / Fold change /veh KIR2DL2 /// KIR2DL4 /// KIR2DL5A /// KIR2DL5B /// KIR2DS1 /// KIR2DS2 /// KIR2DS3 /// KIR2DS4 /// KIR3DL3 /// KIR3DL3 /// KIR3DS1 (11738374_at) / RFU C1QL1 (11718748_at) / Fold change /veh C1QL1 (11718748_at) / RFU TMPRSS4 (11747572_a_at) / Fold change /veh TMPRSS4 (11747572_a_at) / RFU HAMP (11756126_x_at) / Fold change /veh HAMP (11756126_x_at) / RFU RNFT2 (11725882_a_at) / Fold change /veh RNFT2 (11725882_a_at) / RFU NR4A2 (11747474_a_at) / Fold change /veh NR4A2 (11747474_a_at) / RFU ABCC12 (11746883_a_at) / Fold change /veh ABCC12 (11746883_a_at) / RFU TMEM136 (11760407_x_at) / Fold change /veh TMEM136 (11760407_x_at) / RFU CLDN22 /// WWC2 (11732394_at) / Fold change /veh CLDN22 /// WWC2 (11732394_at) / RFU HLA-DPB1 (11760878_x_at) / Fold change /veh HLA-DPB1 (11760878_x_at) / RFU SPINT1 (11716480_a_at) / Fold change /veh SPINT1 (11716480_a_at) / RFU GAP43 (11754022_s_at) / Fold change /veh GAP43 (11754022_s_at) / RFU A4GNT (11735810_at) / Fold change /veh A4GNT (11735810_at) / RFU PRB3 (11715151_x_at) / Fold change /veh PRB3 (11715151_x_at) / RFU TUBB4B (11761932_at) / Fold change /veh TUBB4B (11761932_at) / RFU CAPN14 (11732068_a_at) / Fold change /veh CAPN14 (11732068_a_at) / RFU TMCC2 (11721928_a_at) / Fold change /veh TMCC2 (11721928_a_at) / RFU IRGQ (11745062_a_at) / Fold change /veh IRGQ (11745062_a_at) / RFU FAM174B (11720279_a_at) / Fold change /veh FAM174B (11720279_a_at) / RFU TMPRSS4 (11748680_a_at) / Fold change /veh TMPRSS4 (11748680_a_at) / RFU FAM212B (11763350_a_at) / Fold change /veh FAM212B (11763350_a_at) / RFU PLEKHG5 (11743358_a_at) / Fold change /veh PLEKHG5 (11743358_a_at) / RFU ZSCAN30 (11745921_a_at) / Fold change /veh ZSCAN30 (11745921_a_at) / RFU CMKLR1 (11741424_a_at) / Fold change /veh CMKLR1 (11741424_a_at) / RFU LOC101060620 /// MAPK8IP1 (11723275_at) / Fold change /veh LOC101060620 /// MAPK8IP1 (11723275_at) / RFU SPTSSB (11747773_x_at) / Fold change /veh SPTSSB (11747773_x_at) / RFU PRSS12 (11739890_at) / Fold change /veh PRSS12 (11739890_at) / RFU BIN1 (11741810_x_at) / Fold change /veh BIN1 (11741810_x_at) / RFU WNT11 (11732464_a_at) / Fold change /veh WNT11 (11732464_a_at) / RFU C10orf10 (11716521_a_at) / Fold change /veh C10orf10 (11716521_a_at) / RFU C5orf56 (11738089_at) / Fold change /veh C5orf56 (11738089_at) / RFU CYB561 (11721691_x_at) / Fold change /veh CYB561 (11721691_x_at) / RFU ANKRD19P (11752326_a_at) / Fold change /veh ANKRD19P (11752326_a_at) / RFU OR2T12 /// OR2T33 /// OR2T8 (11738714_s_at) / Fold change /veh OR2T12 /// OR2T33 /// OR2T8 (11738714_s_at) / RFU VCAN (11748164_a_at) / Fold change /veh VCAN (11748164_a_at) / RFU JSRP1 (11732532_at) / Fold change /veh JSRP1 (11732532_at) / RFU KRTAP10-11 (11738290_x_at) / Fold change /veh KRTAP10-11 (11738290_x_at) / RFU MYO3A (11730013_a_at) / Fold change /veh MYO3A (11730013_a_at) / RFU EBF3 (11725865_a_at) / Fold change /veh EBF3 (11725865_a_at) / RFU CAMK2N1 (11719241_x_at) / Fold change /veh CAMK2N1 (11719241_x_at) / RFU C5orf56 (11738088_a_at) / Fold change /veh C5orf56 (11738088_a_at) / RFU OLFML3 (11715873_a_at) / Fold change /veh OLFML3 (11715873_a_at) / RFU LOC100653217 /// NTM (11731650_a_at) / Fold change /veh LOC100653217 /// NTM (11731650_a_at) / RFU MAPK11 (11762145_a_at) / Fold change /veh MAPK11 (11762145_a_at) / RFU FIZ1 (11724087_x_at) / Fold change /veh FIZ1 (11724087_x_at) / RFU OASL (11726364_x_at) / Fold change /veh OASL (11726364_x_at) / RFU SOX15 (11748057_x_at) / Fold change /veh SOX15 (11748057_x_at) / RFU CD79A (11719716_a_at) / Fold change /veh CD79A (11719716_a_at) / RFU HIST1H1D (11736915_at) / Fold change /veh HIST1H1D (11736915_at) / RFU CASKIN2 (11723855_a_at) / Fold change /veh CASKIN2 (11723855_a_at) / RFU LOC730098 (11760151_x_at) / Fold change /veh LOC730098 (11760151_x_at) / RFU OR4N2 (11742367_at) / Fold change /veh OR4N2 (11742367_at) / RFU PRRT2 (11749266_a_at) / Fold change /veh PRRT2 (11749266_a_at) / RFU SNX32 (11753110_a_at) / Fold change /veh SNX32 (11753110_a_at) / RFU CDHR5 (11726645_a_at) / Fold change /veh CDHR5 (11726645_a_at) / RFU RCAN1 (11760418_a_at) / Fold change /veh RCAN1 (11760418_a_at) / RFU FAM167A (11723789_a_at) / Fold change /veh FAM167A (11723789_a_at) / RFU FAM26E (11764081_at) / Fold change /veh FAM26E (11764081_at) / RFU ISYNA1 (11749810_s_at) / Fold change /veh ISYNA1 (11749810_s_at) / RFU ACY1 (11761880_at) / Fold change /veh ACY1 (11761880_at) / RFU 11764098_at / Fold change /veh 11764098_at / RFU SAMD14 (11745864_x_at) / Fold change /veh SAMD14 (11745864_x_at) / RFU NPB (11741838_a_at) / Fold change /veh NPB (11741838_a_at) / RFU TMPRSS6 (11731388_a_at) / Fold change /veh TMPRSS6 (11731388_a_at) / RFU KRTAP10-2 (11738614_at) / Fold change /veh KRTAP10-2 (11738614_at) / RFU ARHGAP8 /// PRR5-ARHGAP8 (11727945_x_at) / Fold change /veh ARHGAP8 /// PRR5-ARHGAP8 (11727945_x_at) / RFU KRTAP5-7 /// NADSYN1 (11734609_at) / Fold change /veh KRTAP5-7 /// NADSYN1 (11734609_at) / RFU RASL12 (11751679_a_at) / Fold change /veh RASL12 (11751679_a_at) / RFU CDKN2B (11736163_a_at) / Fold change /veh CDKN2B (11736163_a_at) / RFU PRF1 (11729649_at) / Fold change /veh PRF1 (11729649_at) / RFU, ZNF638 /// ZNF638-IT1 / Fold change vs veh, ZNF638 /// ZNF638-IT1 / RFU, PANK3 / Fold change vs veh, PANK3 / RFU, SH3YL1 / Fold change vs veh, SH3YL1 / RFU, ZEB2 / Fold change vs veh, ZEB2 / RFU, NRIP1 / Fold change vs veh, NRIP1 / RFU, PTTG1IP / Fold change vs veh, PTTG1IP / RFU, CAPN2 / Fold change vs veh, CAPN2 / RFU, MED14 / Fold change vs veh, MED14 / RFU, SNORA58 / Fold change vs veh, SNORA58 / RFU, C1orf63 / Fold change vs veh, C1orf63 / RFU, LRRFIP1 / Fold change vs veh, LRRFIP1 / RFU, NDUFAF7 / Fold change vs veh, NDUFAF7 / RFU, SLC12A2 / Fold change vs veh, SLC12A2 / RFU, IBTK / Fold change vs veh, IBTK / RFU, ESF1 / Fold change vs veh, ESF1 / Fold change vs veh, TMEM50B / RFU, TAOK1 / Fold change vs veh, TAOK1 / RFU, ACBD3 / Fold change vs veh, ACBD3 / RFU, TMA16 / Fold change vs veh, TMA16 / RFU, RWDD3 / Fold change vs veh, RWDD3 / RFU, BCAT1 / Fold change vs veh, BCAT1 / RFU, EDEM3 / Fold change vs veh, EDEM3 / RFU, TMEM33 / Fold change vs veh, TMEM33 / RFU, WDR75 / Fold change vs veh, WDR75 / RFU, AHCTF1 / Fold change vs veh, AHCTF1 / RFU, TFRC / Fold change vs veh, TFRC / RFU, ZDHHC17 / Fold change vs veh, ZDHHC17 / RFU, NOM1 / Fold change vs veh, NOM1 / RFU, ARL8B / Fold change vs veh, ARL8B / RFU, ZBTB11 / Fold change vs veh, ZBTB11 / RFU, TAMM41 / Fold change vs veh, TAMM41 / RFU, KIAA1704 /// LOC100996395 / Fold change vs veh, KIAA1704 /// LOC100996395 / RFU, ING1 / Fold change vs veh, ING1 / RFU, TRMT61B / Fold change vs veh, TRMT61B / RFU, FUBP3 / Fold change vs veh, FUBP3 / RFU, TP53 / Fold change vs veh, TP53 / RFU, TNKS2 / Fold change vs veh, TNKS2 / RFU, ZFP14 / Fold change vs veh, ZFP14 / RFU, ACTR2 / Fold change vs veh, ACTR2 / RFU, PPP3R1 / Fold change vs veh, PPP3R1 / RFU, PIK3R1 / Fold change vs veh, PIK3R1 / RFU, HNRNPA1 / Fold change vs veh, HNRNPA1 / RFU, RNF170 / Fold change vs veh, RNF170 / RFU, ZNF28 / Fold change vs veh, ZNF28 / RFU, RNGTT / Fold change vs veh, RNGTT / RFU, OGT / Fold change vs veh, OGT / RFU, BRD1 / Fold change vs veh, BRD1 / RFU, MARS / Fold change vs veh, MARS / RFU, ZNF655 / Fold change vs veh, ZNF655 / RFU, FAHD1 / Fold change vs veh, FAHD1 / RFU, BDP1 / Fold change vs veh, BDP1 / RFU, LRRCC1 / Fold change vs veh, LRRCC1 / RFU, ARID1A / Fold change vs veh, ARID1A / RFU, ZNF146 / Fold change vs veh, ZNF146 / RFU, ZNF330 / Fold change vs veh, ZNF330 / RFU, GPN3 / Fold change vs veh, GPN3 / RFU, C9orf123 / Fold change vs veh, C9orf123 / RFU, N4BP2L2 / Fold change vs veh, N4BP2L2 / RFU, ARFIP1 / Fold change vs veh, ARFIP1 / RFU, FAM179B / Fold change vs veh, FAM179B / RFU, BCL10 / Fold change vs veh, BCL10 / RFU, UHRF1BP1L / Fold change vs veh, UHRF1BP1L / RFU, BET1 / Fold change vs veh, BET1 / RFU, CNOT2 / Fold change vs veh, CNOT2 / RFU, ZNF268 / Fold change vs veh, ZNF268 / Fold change vs veh, ZNF507 / RFU, DGCR2 / Fold change vs veh, DGCR2 / RFU, WDSUB1 / Fold change vs veh, WDSUB1 / Fold change vs veh, HSP90B1 /// MIR3652 / RFU, ADSS / Fold change vs veh, ADSS / RFU, GK / Fold change vs veh, GK / RFU, ZNF148 / Fold change vs veh, ZNF148 / RFU, TAF9 / Fold change vs veh, TAF9 / RFU, SLC1A5 / Fold change vs veh, SLC1A5 / RFU, SLMO2 / Fold change vs veh, SLMO2 / RFU, ABCC4 / Fold change vs veh, ABCC4 / RFU, LOC101060439 /// RAP1B / Fold change vs veh, LOC101060439 /// RAP1B / RFU, RFX7 / Fold change vs veh, RFX7 / RFU, GTPBP10 / Fold change vs veh, GTPBP10 / RFU, CNEP1R1 / Fold change vs veh, CNEP1R1 / RFU, BIVM-ERCC5 /// ERCC5 / Fold change vs veh, BIVM-ERCC5 /// ERCC5 / RFU, ILF3 / Fold change vs veh, ILF3 / RFU 11762660_at / Fold change /veh 11762660_at / RFU VCAN (11757783_s_at) / Fold change /veh VCAN (11757783_s_at) / RFU DDX43 (11728927_at) / Fold change /veh DDX43 (11728927_at) / RFU KRT8 (11758188_x_at) / Fold change /veh KRT8 (11758188_x_at) / RFU NKD1 (11759106_at) / Fold change /veh NKD1 (11759106_at) / RFU SRD5A1 (11742802_a_at) / Fold change /veh SRD5A1 (11742802_a_at) / RFU TPSAB1 /// TPSB2 (11721975_s_at) / Fold change /veh TPSAB1 /// TPSB2 (11721975_s_at) / RFU GSTM3 (11746129_a_at) / Fold change /veh GSTM3 (11746129_a_at) / RFU IL23R (11737362_x_at) / Fold change /veh IL23R (11737362_x_at) / RFU TMEM51 (11727254_a_at) / Fold change /veh TMEM51 (11727254_a_at) / RFU PIWIL2 (11732686_x_at) / Fold change /veh PIWIL2 (11732686_x_at) / RFU ORM1 (11744905_x_at) / Fold change /veh ORM1 (11744905_x_at) / RFU CCDC152 (11743942_at) / Fold change /veh CCDC152 (11743942_at) / RFU ECM1 (11717891_a_at) / Fold change /veh ECM1 (11717891_a_at) / RFU IL23R (11748794_a_at) / Fold change /veh IL23R (11748794_a_at) / RFU TNFAIP8L3 (11732012_x_at) / Fold change /veh TNFAIP8L3 (11732012_x_at) / RFU MBOAT4 (11741988_at) / Fold change /veh MBOAT4 (11741988_at) / RFU 11764193_at / Fold change /veh 11764193_at / RFU TMEM53 (11763286_at) / Fold change /veh TMEM53 (11763286_at) / RFU MAGEB2 (11727129_at) / Fold change /veh MAGEB2 (11727129_at) / RFU TMEM200A (11744735_a_at) / Fold change /veh TMEM200A (11744735_a_at) / RFU CCDC152 (11751479_a_at) / Fold change /veh CCDC152 (11751479_a_at) / RFU FAM211A (11726209_a_at) / Fold change /veh FAM211A (11726209_a_at) / RFU RGS16 (11746705_a_at) / Fold change /veh RGS16 (11746705_a_at) / RFU VCAN (11755009_s_at) / Fold change /veh VCAN (11755009_s_at) / RFU RHOB (11743442_s_at) / Fold change /veh RHOB (11743442_s_at) / RFU RGS16 (11720943_a_at) / Fold change /veh RGS16 (11720943_a_at) / RFU RGS16 (11720944_at) / Fold change /veh RGS16 (11720944_at) / RFU, VPS4B / Fold change vs veh, VPS4B / RFU, CREB1 / Fold change vs veh, CREB1 / RFU, DNAJC13 / Fold change vs veh, DNAJC13 / RFU, GNAQ / Fold change vs veh, GNAQ / RFU, CDK5R1 / Fold change vs veh, CDK5R1 / RFU, ZRANB3 / Fold change vs veh, ZRANB3 / RFU, CUL4A / Fold change vs veh, CUL4A / RFU, CCNY / Fold change vs veh, CCNY / RFU, UFL1 / Fold change vs veh, UFL1 / RFU, COG3 / Fold change vs veh, COG3 / RFU, DIAPH2 / Fold change vs veh, DIAPH2 / RFU, SKA2 / Fold change vs veh, SKA2 / RFU, AFF3 / Fold change vs veh, AFF3 / RFU, LMF1 / Fold change vs veh, LMF1 / RFU, IPO11 / Fold change vs veh, IPO11 / RFU, DFFB / Fold change vs veh, DFFB / RFU, FOXP1 / Fold change vs veh, FOXP1 / RFU, CARD8 / Fold change vs veh, CARD8 / RFU, STRN3 / Fold change vs veh, STRN3 / RFU, ADK / Fold change vs veh, ADK / RFU, RASSF2 / Fold change vs veh, RASSF2 / RFU, WIPF1 / Fold change vs veh, WIPF1 / RFU, LARP1B / Fold change vs veh, LARP1B / RFU, RASA1 / Fold change vs veh, RASA1 / RFU, RB1 / Fold change vs veh, RB1 / RFU, PPFIA1 / Fold change vs veh, PPFIA1 / RFU, MAT2A / Fold change vs veh, MAT2A / RFU, CCT5 / Fold change vs veh, CCT5 / RFU, WDR92 / Fold change vs veh, WDR92 / RFU, CUX1 / Fold change vs veh, CUX1 / RFU, TTC7A / Fold change vs veh, TTC7A / RFU, TMEM135 / Fold change vs veh, TMEM135 / RFU, DEPTOR / Fold change vs veh, DEPTOR / RFU, CPM / Fold change vs veh, CPM / RFU, DNAJB6 / Fold change vs veh, DNAJB6 / RFU, CACNA2D3 / Fold change vs veh, CACNA2D3 / RFU, DTX4 / Fold change vs veh, DTX4 / RFU, TFCP2 / Fold change vs veh, TFCP2 / RFU, GMCL1 /// GMCL1P1 / Fold change vs veh, GMCL1 /// GMCL1P1 / RFU, AEBP2 / Fold change vs veh, AEBP2 / RFU, SNHG1 /// SNORD22 /// SNORD25 /// SNORD26 /// SNORD27 /// SNORD28 /// SNORD29 /// SNORD31 / Fold change vs veh, SNHG1 /// SNORD22 /// SNORD25 /// SNORD26 /// SNORD27 /// SNORD28 /// SNORD29 /// SNORD31 / Fold change (Aza/veh), C12orf56 (ProbeSet 11735607_a_at) / Fold change (ACY-1035/veh), C12orf56 (ProbeSet 11735607_a_at) / Fold change (Aza/veh), FGFR1OP (ProbeSet 11751329_s_at) / Fold change (ACY-1035/veh), FGFR1OP (ProbeSet 11751329_s_at) / Fold change (Aza/veh), VPS36 (ProbeSet 11739960_a_at) / Fold change (ACY-1035/veh), VPS36 (ProbeSet 11739960_a_at) / RFU SYPL1 (11715823_x_at) / Fold change /veh SYPL1 (11715823_x_at) / RFU IGFBP7 (11715501_s_at) / Fold change /veh IGFBP7 (11715501_s_at) / RFU REEP3 (11722064_at) / Fold change /veh REEP3 (11722064_at) / RFU IGLL1 (11728026_x_at) / Fold change /veh IGLL1 (11728026_x_at): dose or concentration left out as unconfirmed
Conditions: ProbeSet 11741070_a_at; LIST B

## Nc1ncn([C@@H]2O[C@H](CO)[C@@H](O)[C@H]2O)c(=O)n1 [azacitidine]
  Fold change vs veh, ZNF146: 0.88
